According to patent EP0297610A1, “N-[(2,6-disubstituted)phenyl]-urea and carbamate inhibitors of acyl-CoA:cholesterol acyl-transferase” (WARNER-LAMBERT COMPANY, priority 1987, dated 1989):

Experiments:
[1] = target: acyl-CoA:cholesterol acyltransferase (ACAT); assay: In vitro ACAT inhibition: formation of radiolabeled cholesterol oleate from radiolabeled oleic acid in rabbit intestinal microsomes; assay type: biochemical; settings: tissue preparation containing rabbit intestinal microsomes, read-out: IC₅₀
Description: The test assesses the ability of a test compound to inhibit the acylation of cholesterol by oleic acid by measuring the amount of radiolabeled cholesterol oleate formed from radiolabeled oleic acid in a tissue preparation containing rabbit intestinal microsomes.

male Sprague-Dawley rats = assay: In vivo screen PCC: total blood cholesterol in cholesterol-fed rats; settings: one week; for % Change: change of total blood cholesterol vs control (181 mg/dl), 0.05% test drug in diet, rats; for Total Blood Cholesterol: male Sprague-Dawley rats, 0.05% test drug admixed into diet with 5.5% peanut oil, 1.5% cholesterol, 0.3%-0.5% cholic acid, Control = 181
Description: In an in vivo screen, designated PCC, male Sprague-Dawley rats (approximately 200 g body weight) are randomly divided into groups and provided ad libidum a regular chow diet (Purina No. 5002, Ralston Purina Co., 711 West Fuesser Road, Mascoutah, Illinois, 62224, USA), supplemented with 5.5% peanut oil, 1.5% choles-terol, and 0.3%-0.5% cholic acid, together with 0.05% of the test drug which is admixed into the diet. After one week the animals are etherized and a blood sample is taken from the heart and mixed with 0.14% ethylene-diamine tetraacetic acid (EDTA) to measure the total cholesterol.

Row | SMILES | IC50 [1] [nM] | % Change (male Sprague-Dawley rats) [%] | Total Blood Cholesterol (male Sprague-Dawley rats)
1 | CCCCCCCCCCCCCCCCCCNC(=O)Nc1c(C(C)C)cccc1C(C)C [Example 11, N-[2,6-bis(1-Methylethyl)phenyl]-N′-octadecylurea] | 48 |  | 
2 | CCCCCCCCCCNC(=O)Nc1c(C)cccc1C(C)(C)C [Example 18, N-Decyl-N′-[2-(1,1-dimethylethyl)-6-methylphenyl]urea] | 200 |  | 
3 | CCCCCCCC/C=C\CCCCCCCCNC(=O)Nc1c(C)cccc1Cl [Example 5, (Z)-N-(2-Chloro-6-methylphenyl)-N′-9-octadecenylurea] | 180 |  | 
4 | CCCCCCCCCCC(C)(C)NC(=O)Nc1c(C(C)C)cccc1C(C)C [Example 20, N-[2.6-bis(1-Methylethyl)phenyl]-N′-(1,1-dimethylundecyl)urea] | 45 |  | 
5 | CCCCCCCCCCCCCCNC(=O)Nc1c(CC)cccc1CC [Example 8, N-(2,6-Diethylphenyl)-N′-tetra-decylurea] | 21 |  | 
6 | CCCCCCCC/C=C\CCCCCCCCNC(=O)Nc1c(CC)cccc1C(C)C [Example 2, (Z)-N-[2-Ethyl-6-(1-methylethyl)-phenyl]-N′-9-octadecenylurea] | 37 | -41 | 107 (Control = 181) mg/dl
7 | CCCCCCCCCCNC(=O)Nc1c(C)cccc1C(C)C [Example 17, N-Decyl-N′-[2-methyl-6-(l-methylethyl)-phenyl]urea.] | 210 |  | 
8 | CCCCCCCC/C=C\CCCCCCCCNC(=O)Nc1c(C)cccc1C [Example 4, (Z)-N-(2,6-Dimethylphenyl)-N′-9-octadecenylurea] | 160 |  | 
9 | CCCCCCCC/C=C\CCCCCCCCNC(=O)Nc1c(Cl)cccc1Cl [Example 6, (Z)-N-(2,6-Dichlorophenyl)-N′-9-octadecenylurea] | 400 |  | 
10 | CCCCCCCCCCCCCCNC(=S)Nc1c(CC)cccc1CC [Example 12, N-(2,6-Diethylphenyl)-N′-tetradecylthiourea] | 420 |  | 
11 | CCCCCCCCCCCCCCNC(=O)Nc1c(C)cccc1Cl [Example 7, N-(2-Chloro-6-methylphenyl)-N′-tetradecylurea] | 27 |  | 
12 | CCCCCCCCCCC1(NC(=O)Nc2c(CC)cccc2CC)CCCC1 [Example 21, N-(1-Decylcyclopentyl)-N′-(2.6-diethylphenyl)urea] | 100 |  | 
13 | CCCCCCCCCCCCCCCCCCNC(=O)Nc1c(C)cccc1Cl [Example 10, N-(2-Chloro-6-methylphenyl)-N′-octadecylurea] | 1100 |  | 
14 | CCCCCCCCCCC(C)(C)NC(=O)Nc1c(CC)cccc1CC [Example 19, N-(2,6-Diethylphenyl)-N′-(1.1-dimethylundecyl)urea] | 52 | -60 | 73 (Control = 181) mg/dl
15 | CCCCCCCCCCNC(=O)Nc1c(C(C)C)cccc1C(C)C [Example 15, N-[2,6-bis(1-Methylethyl)phenyl]-N′-decylurea] | 56 |  | 
16 | CCCCCCCCCCCCCCNC(=O)Nc1c(CC)cccc1C(C)C [Example 1, N-[2-Ethyl-6-(1-methylethyl)-phenyl]-N′-tetradecylurea] | 19 | -41 | 106 (Control = 181) mg/dl
17 | CCCCCCCC/C=C\CCCCCCCCNC(=S)Nc1c(C)cccc1C [Example 3, (Z)-N-(2,6-Dimethylphenyl)-N′-9-octadecenylthiourea] | 10000 |  | 
